Reference: publication PMC10460054, “Multiplex Quantitative Analysis of 9 Compounds of Scutellaria baicalensis Georgi in the Plasma of Respiratory Syncytial Virus-Infected Mice Based on HPLC-MS/MS and Pharmacodynamic Effect Correlation Analysis” (Molecules, 2023)

Legend:
[1] = HPLC-MS/MS quantification of 9 compounds in plasma of RSV-infected mice after Scutellaria baicalensis Georgi administration; assay type: in vivo, BALB/c mice; parameters: drug-containing plasma content: unit not given here; details: for time of highest plasma concentration, first peak / time of highest plasma concentration, second peak: RSV-infected mice after Scutellaria baicalensis Georgi administration, double peak phenomenon
Method: The study employed a Vanquish high-performance liquid chromatograph for chromatographic separation, with a HALO C18 column (2.1 × 100 mm, 2.7 μm) as the chromatographic column.
Mass spectrometry was performed using a quadrupole-electrostatic field orbitrap desktop mass spectrometer equipped with an electrospray ion source (ESI). The ESI parameters were set as follows: the pyrolysis voltage was 3.0 kV, the auxiliary gas flow rate was 10 mL/min, the ion transport tube temperature was 350 °C, the auxiliary gas temperature was 350 °C, and the sheath gas flow rate was 45 L/min. Quantitative analysis was performed using the selective ion detection (SIM) mode (Table S1).
Male BALB/c mice, aged 2 weeks and weighing 10–12 g, were chosen for this study. They were acclimatized for 2 days and then randomly assigned to one of five groups: blank (C), model (M), positive control ribavirin (Y1), positive control lianhua qingwen granules (Y2), and Scutellaria baicalensis Georgi administration (H1-H12). Each group consisted of six mice, and their weights were recorded. The mice were pre-administered for 2 days, and on the third day, RSV virus (TCID50 = 10^−6) was inoculated through intranasal infection at a volume of 35 μL per mouse. The blank group was inoculated with normal saline of the same volume. After the inoculation of the RSV virus, the blank and model groups were given distilled water by gavage, while the drug-administered groups were given an aqueous extract of Scutellaria baicalensis Georgi (10 µL/g) once a day for 3 days. The mice were observed daily for their mental status, hair color, diet, and body weight. […] It was then centrifuged at 3000 r/min for 10 min, and the upper layer of plasma was stored at −80℃. Lung tissues were weighed, the lung index was calculated, and the lung tissues were stored in the refrigerator at −80 °C for freezing.
The plasma sample (200 μL) was processed in a 5 mL tube. Subsequently, 10 μL of 5% formic acid and 20 μL of 2 mol/L hydrochloric acid were added, followed by vortexing for 1 min with 10 μL of internal standard solution (100 ng/mL tinidazole). The extraction was completed by adding 2000 μL of acetonitrile solvent and vortexing for 2 min. The mixture was then centrifuged at 12,000 r/min at 4 °C for 10 min, and the supernatant solution was collected in a new centrifuge tube. The supernatant solution was dried by nitrogen at room temperature before being redissolved in 50 μL of 70% acetonitrile solution containing 0.1% formic acid. After vortexing for 1 min, the solution was centrifuged at 12,000 r/min at 4 °C for 10 min, and the resulting supernatant was injected for analysis. The injection volume was 3 μL.
The drug-containing plasma at different time points was subjected to sample treatment. The HPLC-MS/MS analysis method was used to quantitatively detect the 9 compounds in the ion detection (SIM) mode. According to the relative peak area value = index peak area/internal standard peak area, the corresponding concentration value was calculated by substituting the standard curve of each component.

[2] = Stability of 9 compounds in mouse plasma under storage conditions; assay type: in vitro ADME; details: n = 6; for Stability 3-Freeze-Thaw Cycles RE: 3 times repeated freeze-thaw at −80 °C; for Stability Short-Term RE: 12 h at 4 °C; for Stability Long-Term RE: −20 °C for 20 days
[3] = RSV-infected mice, 0.083 h after last gavage of Scutellaria baicalensis Georgi extract, mean ± SD, n = 6
[4] = RSV-infected mice, 0.167 h after last gavage of Scutellaria baicalensis Georgi extract, mean ± SD, n = 6
[5] = RSV-infected mice, 0.25 h after last gavage of Scutellaria baicalensis Georgi extract, mean ± SD, n = 6
[6] = RSV-infected mice, 0.5 h after last gavage of Scutellaria baicalensis Georgi extract, mean ± SD, n = 6
[7] = RSV-infected mice, 1 h after last gavage of Scutellaria baicalensis Georgi extract, mean ± SD, n = 6
[8] = RSV-infected mice, 2 h after last gavage of Scutellaria baicalensis Georgi extract, mean ± SD, n = 6
[9] = RSV-infected mice, 4 h after last gavage of Scutellaria baicalensis Georgi extract, mean ± SD, n = 6
[10] = RSV-infected mice, 6 h after last gavage of Scutellaria baicalensis Georgi extract, mean ± SD, n = 6
[11] = RSV-infected mice, 8 h after last gavage of Scutellaria baicalensis Georgi extract, mean ± SD, n = 6
[12] = RSV-infected mice, 10 h after last gavage of Scutellaria baicalensis Georgi extract, mean ± SD, n = 6
[13] = RSV-infected mice, 12 h after last gavage of Scutellaria baicalensis Georgi extract, mean ± SD, n = 6
[14] = RSV-infected mice, 24 h after last gavage of Scutellaria baicalensis Georgi extract, mean ± SD, n = 6
[15] = high QC (20,000 or 10,000 ng/mL)
[16] = male, BALB/c, mouse, in vivo, 0.083 h
[17] = male, BALB/c, mouse, in vivo, 0.167 h
[18] = male, BALB/c, mouse, in vivo, 0.25 h
[19] = male, BALB/c, mouse, in vivo, 0.5 h
[20] = male, BALB/c, mouse, in vivo, 1 h
[21] = male, BALB/c, mouse, in vivo, 2 h
[22] = male, BALB/c, mouse, in vivo, 4 h
[23] = male, BALB/c, mouse, in vivo, 6 h
[24] = male, BALB/c, mouse, in vivo, 8 h
[25] = male, BALB/c, mouse, in vivo, 10 h
[26] = male, BALB/c, mouse, in vivo, 12 h
[27] = male, BALB/c, mouse, in vivo, 24 h

Compound	time of highest plasma concentration, first peak [1] [h]	time of highest plasma concentration, second peak [1] [h]	drug-containing plasma content [1, 3]	drug-containing plasma content [1, 4]	drug-containing plasma content [1, 5]	drug-containing plasma content [1, 6]	drug-containing plasma content [1, 7]	drug-containing plasma content [1, 8]	drug-containing plasma content [1, 9]	drug-containing plasma content [1, 10]	drug-containing plasma content [1, 11]	Stability 3-Freeze-Thaw Cycles RE [2, 15] [%]	Stability 3-Freeze-Thaw Cycles RE ([2]; low QC (12.5 or 25.6 ng/mL)) [%]	Stability 3-Freeze-Thaw Cycles RE ([2]; medium QC (320 or 160 ng/mL)) [%]	Stability Short-Term RE [2, 15] [%]	Stability Short-Term RE ([2]; low QC (12.5 or 25.6 ng/mL)) [%]	Stability Short-Term RE ([2]; medium QC (320 or 160 ng/mL)) [%]	Stability Long-Term RE [2, 15] [%]	Stability Long-Term RE ([2]; low QC (12.5 or 25.6 ng/mL)) [%]	Stability Long-Term RE ([2]; medium QC (320 or 160 ng/mL)) [%]	further results
COc1c(O)cc2oc(-c3ccccc3)cc(=O)c2c1O [Oroxylin A]	0.167	6	13.47± 9.43	745.77± 35.54	63.52± 1.32	40.44± 4.81	160.88± 15.86	75.84± 5.43	486.23± 8.65	1063.52± 101.32	300.68± 17.25	−5.29	−4.26	−8.41	−4.07	−3.30	−5.14	−7.03	−6.71	−5.78	drug-containing plasma content [1, 12]: 19.18± 2.56; drug-containing plasma content [1, 13]: 13.60± 7.94; drug-containing plasma content [1, 14]: 0
O=c1cc(-c2ccccc2)oc2cc(O)cc(O)c12 [Chrysin]			0	0	0	10.37± 2.12	15.38± 4.94	21.43± 4.86	12.37± 2.12	60.64± 2.86	0	−2.47	−6.42	−5.15	−2.74	−5.59	−10.49	−3.86	−4.52	−9.37	drug-containing plasma content [1, 12]: 0; drug-containing plasma content [1, 13]: 0; drug-containing plasma content [1, 14]: 0
O=C(O)[C@H]1O[C@@H](Oc2cc3oc(-c4ccccc4)cc(=O)c3c(O)c2O)[C@H](O)[C@@H](O)[C@@H]1O [Baicalin]	0.167	6										7.69	−7.38	−2.37	5.73	−9.16	−5.85	5.87	−8.15	−5.21	drug-containing plasma content [1, 16]: 2434.28± 151.56; drug-containing plasma content [1, 17]: 4607.45± 318.09; drug-containing plasma content [1, 18]: 2031.56± 103.57; drug-containing plasma content [1, 19]: 2696.64± 110.33; drug-containing plasma content [1, 20]: 2474.37± 225.92; drug-containing plasma content [1, 21]: 2620.76± 117.82; drug-containing plasma content [1, 22]: 1587.10± 169.68; drug-containing plasma content [1, 23]: 8607.45± 428.09; drug-containing plasma content [1, 24]: 1856.98± 113.03; drug-containing plasma content [1, 25]: 569.32± 20.22; drug-containing plasma content [1, 26]: 39.89± 7.45; drug-containing plasma content [1, 27]: 15.44± 5.62
O=c1cc(-c2ccccc2)oc2c(O)c(O)cc(O)c12 [Norwogonin]	0.167	6	28.17± 2.96	94.18± 5.68	23.48± 0.05	13.88± 4.73	12.42± 7.14	0	14.29± 9.94	113.88± 4.73	21.94± 0.43	1.97	−6.11	7.06	−1.39	−2.17	0.74	0.11	−8.96	3.74	drug-containing plasma content [1, 12]: 16.07± 3.80; drug-containing plasma content [1, 13]: 0; drug-containing plasma content [1, 14]: 0

Now from value to compound, other results behind:

time of highest plasma concentration, first peak [1] [h]	time of highest plasma concentration, second peak [1] [h]	Compound	drug-containing plasma content [1, 3]	drug-containing plasma content [1, 4]	drug-containing plasma content [1, 5]	drug-containing plasma content [1, 6]	drug-containing plasma content [1, 7]	drug-containing plasma content [1, 8]	drug-containing plasma content [1, 9]	drug-containing plasma content [1, 10]	drug-containing plasma content [1, 11]	Stability 3-Freeze-Thaw Cycles RE [2, 15] [%]	Stability 3-Freeze-Thaw Cycles RE ([2]; low QC (12.5 or 25.6 ng/mL)) [%]	Stability 3-Freeze-Thaw Cycles RE ([2]; medium QC (320 or 160 ng/mL)) [%]	Stability Short-Term RE [2, 15] [%]	Stability Short-Term RE ([2]; low QC (12.5 or 25.6 ng/mL)) [%]	Stability Short-Term RE ([2]; medium QC (320 or 160 ng/mL)) [%]	Stability Long-Term RE [2, 15] [%]	Stability Long-Term RE ([2]; low QC (12.5 or 25.6 ng/mL)) [%]	Stability Long-Term RE ([2]; medium QC (320 or 160 ng/mL)) [%]	further results
0.167	6	COc1c(O[C@@H]2O[C@H](C(=O)O)[C@@H](O)[C@H](O)[C@H]2O)cc(O)c2c(=O)cc(-c3ccccc3)oc12 [Wogonoside]	553.37± 9.22	1829.58± 102.08	928.49± 33.77	776.20± 41.04	1078.05± 63.01	1333.51± 38.28	1372.78± 53.34	3829.58± 182.08	1825.89± 177.13	1.79	−8.61	0.60	3.40	−3.08	−1.39	3.40	−2.30	−2.01	drug-containing plasma content [1, 12]: 318.50± 23.92; drug-containing plasma content [1, 13]: 188.85± 19.38; drug-containing plasma content [1, 14]: 0
0.167	6	O=c1cc(-c2ccccc2)oc2cc(O)c(O)c(O)c12 [Baicalein]																			drug-containing plasma content [1, 16]: 235.76± 21.97; drug-containing plasma content [1, 17]: 573.93± 23.68; drug-containing plasma content [1, 18]: 437.59± 15.17; drug-containing plasma content [1, 19]: 243.84± 16.32; drug-containing plasma content [1, 20]: 208.98± 14.58; drug-containing plasma content [1, 21]: 25.73± 5.59; drug-containing plasma content [1, 22]: 43.00± 8.66; drug-containing plasma content [1, 23]: 792.15± 41.3; drug-containing plasma content [1, 24]: 184.80± 29.24; drug-containing plasma content [1, 25]: 120.93± 15.03; drug-containing plasma content [1, 26]: 9.28± 5.01; drug-containing plasma content [1, 27]: 1.42± 5.86
